From patent US4472305A, “Hexapeptide amides” (Sterling Drug Inc., priority 1983, dated 1984)
Non-standard residues stand in square brackets, D forms with d. Residues, ends and D or L forms follow the SMILES beside them. Phe(4-Cl) = N[C@@H](Cc1ccc(Cl)cc1)C(=O)O; dNMeW = CN[C@H](Cc1c[nH]c2ccccc12)C(=O)O; Gly(NCH2CH2Ph) = O=C(O)CNCCc1ccccc1; NMeF = CN[C@@H](Cc1ccccc1)C(=O)O; 4Pal = N[C@@H](Cc1ccncc1)C(=O)O; Dap(Me2) = CN(C)C[C@H](N)C(=O)O; d4Pal = N[C@H](Cc1ccncc1)C(=O)O; dPhg = N[C@@H](C(=O)O)c1ccccc1; NMeL = CN[C@@H](CC(C)C)C(=O)O; Nle = CCCC[C@H](N)C(=O)O; Nphe = O=C(O)CNCc1ccccc1; Dap = NC[C@H](N)C(=O)O; Sar = CNCC(=O)O

What was measured:
SP receptor [1] = target: T1, SP receptor (Rattus norvegicus, UniProt P14600); test: 3H-SP binding test, rat submaxillary gland tissue; details: for inhibition at 30 µM: read-out: 3H-SP Binding % Inhibition; for effect on 3H-SP binding (specificity): rat submaxillary gland or brain tissue preparation, tissue not specified
T1 construct: from tissue; host or cells: rat submaxillary gland (crude tissue suspension)
Method: (§1) Crude rat submaxillary gland or brain tissue is suspended in buffer containing protease inhibitors (and calcium ions and magnesium ions in the case of brain tissue) and incubated under nitrogen atmosphere with ^3 H-SP and test compound. The bound SP is then separated from free SP by filtration and quantitated by liquid scintillation spectroscopy. This test meets the criteria of reversibility, saturability, sensitivity to known SP agonists and antagonists, and specificity for an SP receptor binding assay.
(§2) With regard to reversibility, addition of unlabelled SP causes a gradual decrease in bound ^3 H-SP, showing that SP is not irreversibly bound to the receptors in the tissue. With regard to saturability, the amount of bound ^3 H-SP in the preparation increases in direct proportion to the concentration of ^3 H-SP added until a saturation point is reached. […] With regard to sensitivity, known SP agonists and antagonists inhibit ^3 H-SP binding.
(§3) The results are expressed either as percent inhibition at a concentration of 30 micromoles per liter (μM) or as an IC50 calculated as the concentration in micromoles per liter.
(§4) The ^3 H-SP binding test results were obtained using rat submaxillary gland tissue for Examples 1-34 and rat brain tissue for Examples 35-42.

SP receptor [2] = target: T1, SP receptor; test: 3H-SP binding test, rat brain tissue; details: rat brain tissue (Examples 35-42); for inhibition at 30 µM: 30 μM test compound
Method: as §1, §2, §3, §4

[3] = test system: longitudinal muscle of guinea pig terminal ileum; test: Guinea pig ileum test (SP agonist and antagonist effect); assay type: cell-based; details: for Guinea Pig Ileum % Agonism (potency relative to SP): contraction of ileum longitudinal muscle strips, relative molar potency vs SP
Method: Strips of longitudinal muscle derived from terminal ileum of adult male guinea pigs (Charles River, 400-600 g.) are mounted in 5-ml. organ baths containing oxygenated Krebs solution containing 1 μM each of atropine and pyrilamine maintained at 30-33 C. and connected to isometric transducers. Following tissue equilibration and repeated washing (45-60 min.), SP or an appropriate reference agonist is added cumulatively to the bath and contractions of the tissue are recorded. The bath is washed thoroughly and 30-45 min. is allowed to elapse before construction of a second reference agonist curve to assure reproducibility of the responses. Test compounds are similarly evaluated for agonist activity up to a maximum concentration of 10-100 μM. […] When appropriate, relative molar potency ratios are calculated (EC50 reference/ED50 test drug). […] The effects of several concentrations of test antagonist, pooled across separate experiments, provide dose-ratio (EC50 shift) data for a standard Schild plot analysis, with computation of the pA2.

[4] = 30 μM test compound, rat submaxillary gland tissue (Examples 1-34)

T1 sequence (P14600 whole entry): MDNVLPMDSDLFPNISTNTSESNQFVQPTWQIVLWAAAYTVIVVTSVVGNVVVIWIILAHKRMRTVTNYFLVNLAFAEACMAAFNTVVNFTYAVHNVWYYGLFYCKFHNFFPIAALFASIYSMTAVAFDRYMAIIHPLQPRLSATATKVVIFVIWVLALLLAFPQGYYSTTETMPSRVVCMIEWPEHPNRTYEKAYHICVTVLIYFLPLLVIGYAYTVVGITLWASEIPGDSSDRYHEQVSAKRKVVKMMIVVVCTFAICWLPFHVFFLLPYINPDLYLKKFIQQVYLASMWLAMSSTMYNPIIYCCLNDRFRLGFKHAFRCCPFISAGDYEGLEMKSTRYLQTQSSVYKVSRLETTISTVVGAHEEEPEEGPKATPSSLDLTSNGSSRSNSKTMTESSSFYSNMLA

Row | inhibition at 30 µM (SP receptor [1]; [4]) | Molecule | Guinea Pig Ileum % Agonism (potency relative to SP) [3] | also measured
1 | 40% | CSCC[C@H](NC(=O)[C@H](CC(C)C)NC(=O)[C@@H](Cc1ccccc1)NC(=O)CN(CCc1ccccc1)C(=O)[C@@H](Cc1ccccc1)NC(=O)[C@@H]1CCCN1)C(N)=O [Example 32, HPro-DPhe-Pgl-DPhe-Leu-MetNH2] (H-P[dF][Gly(NCH2CH2Ph)][dF]LM-NH2) | – | –
2 | – | CSCC[C@H](NC(=O)[C@H](CC(C)C)NC(=O)[C@@H](Cc1c[nH]c2ccccc12)NC(=O)[C@H](Cc1ccccc1)N(C)C(=O)[C@@H](Cc1c[nH]c2ccccc12)NC(=O)[C@@H]1CCCN1)C(N)=O [Example 38, HPro-DTrp-MePhe-DTrp-Leu-MetNH2] (H-P[dW][NMeF][dW]LM-NH2) | – | inhibition at 30 µM (SP receptor [2]): 68%
3 | 48% | CSCC[C@H](NC(=O)[C@H](CC(C)C)NC(=O)CNC(=O)[C@@H](Cc1ccccc1)NC(=O)[C@H](Cc1ccccc1)NC(=O)[C@@H]1CCCN1)C(N)=O [Example 7, HPro-Phe-DPhe-Gly-Leu-MetNH2] (H-PF[dF]GLM-NH2) | 0.7% | –
4 | – | HPro-Phe-D,LBpa-Gly-Leu-MetNH2 [Example 18] | 33% | 3H-SP Binding % Inhibition (SP receptor [1]; [4]): 90%
5 | 93% | CSCC[C@H](NC(=O)[C@H](CC(C)C)NC(=O)CN(C)C(=O)[C@H](Cc1ccccc1)NC(=O)[C@H](Cc1ccccc1)NC(=O)[C@@H]1CCCN1)C(N)=O [Example 3, HPro-Phe-Phe-Sar-Leu-MetNH2] (H-PFF[Sar]LM-NH2) | 27% | –
6 | 17% | CSCC[C@H](NC(=O)[C@@H](CC(C)C)NC(=O)CNC(=O)[C@H](Cc1ccccc1)NC(=O)[C@H](Cc1ccccc1)NC(=O)[C@@H]1CCCN1)C(N)=O [Example 4, HPro-Phe-Phe-Gly-DLeu-MetNH2] (H-PFFG[dL]M-NH2) | 0.3% | –
7 | 8% | CSCC[C@@H](NC(=O)[C@H](CC(C)C)NC(=O)CNC(=O)[C@H](Cc1ccccc1)NC(=O)[C@H](Cc1ccccc1)NC(=O)[C@@H]1CCCN1)C(N)=O [Example 6, HPro-Phe-Phe-Gly-Leu-DMetNH2] (H-PFFGL[dM]-NH2) | 4% | –
8 | 49% | CCCC[C@H](NC(=O)[C@H](CC(C)C)NC(=O)CNC(=O)[C@H](Cc1ccccc1)NC(=O)[C@H](Cc1ccccc1)NC(=O)[C@@H]1CCCN1)C(N)=O [Example 8, HPro-Phe-Phe-Gly-Leu-NleNH2] (H-PFFGL[Nle]-NH2) | 3% | –
9 | – | NCC(CC(=O)O)c1ccc(Cl)cc1 (centres unmarked) [baclofen, reference compound] | – | effect on 3H-SP binding (specificity) (SP receptor [1]): do not affect
10 | – | COc1cc(CNC(=O)CCCC/C=C/C(C)C)ccc1O [capsaicin, reference compound] | – | effect on 3H-SP binding (specificity) (SP receptor [1]): do not affect
11 | 40% | CSCC[C@H](NC(=O)[C@H](CC(C)C)NC(=O)[C@@H](Cc1ccccc1)NC(=O)CN(Cc1ccccc1)C(=O)[C@@H](Cc1ccccc1)NC(=O)[C@@H]1CCCN1)C(N)=O [Example 30, HPro-DPhe-Bgl-DPhe-Leu-MetNH2] (H-P[dF][Nphe][dF]LM-NH2) | – | –
12 | – | CSCC[C@H](NC(=O)[C@H](CC(C)C)NC(=O)[C@@H](Cc1c[nH]c2ccccc12)N(C)C(=O)[C@H](Cc1ccccc1)NC(=O)[C@@H](Cc1c[nH]c2ccccc12)NC(=O)[C@@H]1CCCN1)C(N)=O [Example 41, HPro-DTrp-Phe-MeDTrp-Leu-MetNH2] (H-P[dW]F[dNMeW]LM-NH2) | – | inhibition at 30 µM (SP receptor [2]): 79%; IC50 (SP receptor [2]): 13.3 µM
13 | 17% | CSCC[C@H](NC(=O)[C@H](CC(C)C)NC(=O)[C@@H](C)NC(=O)[C@H](Cc1ccccc1)NC(=O)[C@H](Cc1ccccc1)NC(=O)[C@@H]1CCCN1)C(N)=O [Example 1, HPro-Phe-Phe-DAla-Leu-MetNH2] (H-PFF[dA]LM-NH2) | 0.7% | –
14 | – | CSCC[C@H](NC(=O)[C@H](CC(C)C)NC(=O)[C@@H](Cc1ccccc1)NC(=O)[C@H](Cc1ccccc1)NC(=O)[C@H](NC(=O)[C@@H]1CCCN1)c1ccccc1)C(N)=O [Example 28, HPro-DPhg-Phe-DPhe-Leu-MetNH2] (H-P[dPhg]F[dF]LM-NH2) | – | inhibition at 30 µM (SP receptor [1]): 33%
15 | 65% | CSCC[C@H](NC(=O)[C@H](CC(C)C)NC(=O)CNC(=O)[C@H](Cc1ccccc1)NC(=O)[C@H](Cc1ccccc1)NC(=O)[C@H]1CCCN1)C(N)=O [Example 10, HDPro-Phe-Phe-Gly-Leu-MetNH2] (H-[dP]FFGLM-NH2) | 10% | –
16 | 25% | CSCC[C@H](NC(=O)[C@H](CC(C)C)NC(=O)CNC(=O)[C@H](Cc1ccccc1)N(C)C(=O)[C@H](Cc1ccccc1)NC(=O)[C@@H]1CCCN1)C(N)=O [Example 2, HPro-Phe-MePhe-Gly-Leu-MetNH2] (H-PF[NMeF]GLM-NH2) | – | –
17 | 42% | CSCC[C@H](NC(=O)[C@H](CC(C)C)NC(=O)[C@H](Cc1ccncc1)NC(=O)[C@H](Cc1ccccc1)NC(=O)[C@H](Cc1ccccc1)NC(=O)[C@@H]1CCCN1)C(N)=O [Example 19] (H-PFF[4Pal]LM-NH2) | – | –
18 | 22% | CSCC[C@H](NC(=O)[C@H](CC(C)C)NC(=O)CNC(=O)[C@H](Cc1ccccc1)NC(=O)[C@@H](Cc1ccccc1)NC(=O)[C@@H]1CCCN1)C(N)=O [Example 9, HPro-DPhe-Phe-Gly-Leu-MetNH2] (H-P[dF]FGLM-NH2) | 0.0009% | Guinea Pig Ileum pA2 [3]: 5.6
19 | 20% | CSCC[C@H](NC(=O)[C@H](CC(C)C)NC(=O)[C@@H](Cc1ccncc1)NC(=O)[C@H](Cc1ccccc1)NC(=O)[C@H](Cc1ccccc1)NC(=O)[C@@H]1CCCN1)C(N)=O [Example 20] (H-PFF[d4Pal]LM-NH2) | – | –
20 | 11% | CSCC[C@H](NC(=O)[C@H](CC(C)C)NC(=O)CN(C)C(=O)[C@H](Cc1ccccc1)N(C)C(=O)[C@H](Cc1ccccc1)NC(=O)[C@@H]1CCCN1)C(N)=O [Example 11, HPro-Phe-MePhe-Sar-Leu-MetNH2] (H-PF[NMeF][Sar]LM-NH2) | – | –
21 | 75% | CSCC[C@H](NC(=O)[C@H](CC(C)C)N(C)C(=O)CNC(=O)[C@H](Cc1ccccc1)NC(=O)[C@H](Cc1ccccc1)NC(=O)[C@@H]1CCCN1)C(N)=O [Example 5, HPro-Phe-Phe-Gly-MeLeu-MetNH2] (H-PFFG[NMeL]M-NH2) | – | –
22 | – | CSCC[C@H](NC(=O)[C@H](CC(C)C)NC(=O)CNC(=O)[C@H](Cc1ccc(Cl)cc1)NC(=O)[C@H](Cc1ccc(Cl)cc1)NC(=O)[C@@H]1CCCN1)C(N)=O [Example 37, HPro-Pcp-Pcp-Gly-Leu-MetNH2] (H-P[Phe(4-Cl)][Phe(4-Cl)]GLM-NH2) | – | inhibition at 30 µM (SP receptor [2]): 62%
23 | 10% | CSCC[C@H](NC(=O)[C@H](CC(C)C)N1CC[C@H](NC(=O)[C@H](Cc2ccccc2)NC(=O)[C@H](Cc2ccccc2)NC(=O)[C@@H]2CCCN2)C1=O)C(N)=O [Example 14, HPro-Phe-Phe-CabLeu-MetNH2] | – | –
24 | 10% | CSCC[C@H](NC(=O)[C@H](CC(C)C)NC(=O)[C@H](CCC(=O)O)NC(=O)[C@H](Cc1ccccc1)NC(=O)[C@H](Cc1ccccc1)NC(=O)[C@@H]1CCCN1)C(N)=O [Example 15, HPro-Phe-Phe-Glu-Leu-MetNH2] (H-PFFELM-NH2) | 0.004% | –
25 | 15% | CSCC[C@H](NC(=O)[C@H](CC(C)C)NC(=O)[C@@H](CCCCN)NC(=O)[C@H](Cc1ccccc1)NC(=O)[C@@H](Cc1c[nH]c2ccccc12)NC(=O)[C@@H]1CCCN1)C(N)=O [Example 33, HPro-DTrp-Phe-DLys-Leu-MetNH2] (H-P[dW]F[dK]LM-NH2) | – | –
26 | 13% | CSCC[C@H](NC(=O)[C@H](CN(C)C)NC(=O)CNC(=O)[C@H](Cc1ccccc1)NC(=O)[C@H](Cc1ccccc1)NC(=O)[C@@H]1CCCN1)C(N)=O [Example 16, HPro-Phe-Phe-Gly-Gal-MetNH2] (H-PFFG[Dap(Me2)]M-NH2) | – | –
27 | 20% | CSCC[C@H](NC(=O)[C@H](CC(C)C)NC(=O)[C@@H](CCCNC(=N)N)NC(=O)[C@H](Cc1ccccc1)NC(=O)[C@@H](Cc1c[nH]c2ccccc12)NC(=O)[C@@H]1CCCN1)C(N)=O [Example 34, HPro-DTrp-Phe-DArg-Leu-MetNH2] (H-P[dW]F[dR]LM-NH2) | 5.2% | –
28 | 15% | CSCC[C@H](NC(=O)[C@H](CC(C)C)NC(=O)[C@H](CN)NC(=O)[C@H](Cc1ccccc1)NC(=O)[C@H](Cc1ccccc1)NC(=O)[C@@H]1CCCN1)C(N)=O [Example 13, HPro-Phe-Phe-LDap-Leu-MetNH2] (H-PFF[Dap]LM-NH2) | – | –
